From US20240228448A1 (Washington University, priority 2021, published 2024)
“And” between values parts separate entries of the source, which are not always exact repeats. Identical values can stand only once.

Assay: Ex vivo biodistribution study in Sprague Dawley rats
Conditions: SD rats
Experimental: To evaluate the kinetics and the tissue distribution of [^18F]FS1P1 in rodents, Sprague Dawley (SD) male rats (6-7 weeks old; 200-300 g) were used and euthanized at 5, 30, 60, and 120 min post-injection. The radioactivity uptake of each organ was calculated as percentage injected dose per gram (% ID/gram). As shown in FIG. 7A-FIG. 7B, the initial tracer uptake was high in most tissues at 5 min. The liver had the highest uptake (% ID/g) at 3.04±0.18, whereas the heart, lung, spleen, kidney, and small intestine had moderate to high uptake at 1.39±0.15, 1.44±0.13, 1.14±0.13, 1.76±0.15, and 1.00±0.21 respectively. The radioactivity was rapidly washed out from heart, lung, pancreas, spleen, kidney, and liver, at 30 min post injection with ID %/g values decreasing to 0.55±0.02, 0.84±0.05, 0.66±0.04, 0.54±0.03, 1.13±0.66, and 2.51±0.10 respectively as shown in FIG. 7A.
A dose of [^18F]FS1P1 (˜3.7 MBq/100 μL) was injected via the tail vein into SD rats (male; 6-7 weeks old; 200-300 g). Rats were euthanized under anesthesia at 5, 30, 60, and 120 min post-injection (n=4 per group). Tissues of interest including blood, heart, lung, muscle, fat, pancreas, spleen, kidney, liver, brain, bone, thymus, small intestine, and large intestine were collected, weighed, and counted on an automated Beckman Gamma counter (Beckman, Brea, CA). To evaluate the uptake of [^18F]FS1P1 within the brain, brain dissection was performed and different brain regions including brain stem, cerebellum, cortex, striatum, thalamus, and hippocampus were collected and evaluated. The uptake of each organ was calculated and expressed as a percentage of the injection dose per gram of wet tissue (% ID per gram).

Compound: Cc1ccccc1-c1ccc(-c2nc(-c3ccc(CN(C)CCC(=O)O)c([18F])c3)no2)cc1C(F)(F)F [[^18F]FS1P1]
- Tissue uptake (% ID/g) (Blood, 5 min post-injection): 0.16 ± 0.09 % ID/g
- Tissue uptake (% ID/g) (Blood, 30 min post-injection): 0.13 ± 0.01 % ID/g
- Tissue uptake (% ID/g) (Blood, 60 min post-injection): 0.13 ± 0.01 % ID/g
- Tissue uptake (% ID/g) (Blood, 120 min post-injection): 0.10 ± 0.01 % ID/g
- Tissue uptake (% ID/g) (Bone, 5 min post-injection): 0.20 ± 0.13 % ID/g
- Tissue uptake (% ID/g) (Bone, 30 min post-injection): 0.16 ± 0.01 % ID/g
- Tissue uptake (% ID/g) (Bone, 60 min post-injection): 0.15 ± 0.02 % ID/g
- Tissue uptake (% ID/g) (Bone, 120 min post-injection): 0.11±0.02 % ID/g
- Tissue uptake (% ID/g) (Brain stem, 5 min post-injection): 0.48 ± 0.14 % ID/g
- Tissue uptake (% ID/g) (Brain stem, 30 min post-injection): 0.52 ± 0.03 % ID/g
- Tissue uptake (% ID/g) (Brain stem, 60 min post-injection): 0.68 ± 0.07 % ID/g
- Tissue uptake (% ID/g) (Brain stem, 120 min post-injection): 0.71 ± 0.11 % ID/g
- Tissue uptake (% ID/g) (Cerebellum, 5 min post-injection): 0.42 ± 0.28 % ID/g
- Tissue uptake (% ID/g) (Cerebellum, 30 min post-injection): 0.52 ± 0.05 % ID/g
- Tissue uptake (% ID/g) (Cerebellum, 60 min post-injection): 0.66 ± 0.07 % ID/g
- Tissue uptake (% ID/g) (Cerebellum, 120 min post-injection): 0.77 ± 0.12 % ID/g
- Tissue uptake (% ID/g) (Cortex, 5 min post-injection): 0.35 ± 0.25 % ID/g
- Tissue uptake (% ID/g) (Cortex, 30 min post-injection): 0.51 ± 0.07 % ID/g
- Tissue uptake (% ID/g) (Cortex, 60 min post-injection): 0.59 ± 0.13 % ID/g
- Tissue uptake (% ID/g) (Cortex, 120 min post-injection): 0.67 ± 0.10 % ID/g
- Tissue uptake (% ID/g) (Fat, 5 min post-injection): 0.05 ± 0.03 % ID/g
- Tissue uptake (% ID/g) (Fat, 30 min post-injection): 0.16 ± 0.02 % ID/g
- Tissue uptake (% ID/g) (Fat, 60 min post-injection): 0.15 ± 0.02 % ID/g
- Tissue uptake (% ID/g) (Fat, 120 min post-injection): 0.14 ± 0.02 % ID/g
- Tissue uptake (% ID/g) (Heart, 5 min post-injection): 1.02 ± 0.69 % ID/g
- Tissue uptake (% ID/g) (Heart, 30 min post-injection): 0.55±0.02 % ID/g and 0.54 ± 0.03 % ID/g
- Tissue uptake (% ID/g) (Heart, 60 min post-injection): 0.49 ± 0.02 % ID/g
- Tissue uptake (% ID/g) (Heart, 120 min post-injection): 0.39 ± 0.07 % ID/g
- Tissue uptake (% ID/g) (Hippocampus, 5 min post-injection): 0.32 ± 0.21 % ID/g
- Tissue uptake (% ID/g) (Hippocampus, 30 min post-injection): 0.41 ± 0.03 % ID/g
- Tissue uptake (% ID/g) (Hippocampus, 60 min post-injection): 0.54 ± 0.03 % ID/g
- Tissue uptake (% ID/g) (Hippocampus, 120 min post-injection): 0.42 ± 0.28 % ID/g
- Tissue uptake (% ID/g) (Kidney, 5 min post-injection): 1.33 ± 0.87 % ID/g
- Tissue uptake (% ID/g) (Kidney, 30 min post-injection): 1.13±0.66 % ID/g and 1.13 ± 0.13 % ID/g
- Tissue uptake (% ID/g) (Kidney, 60 min post-injection): 1.10 ± 0.08 % ID/g
- Tissue uptake (% ID/g) (Kidney, 120 min post-injection): 1.02 ± 0.17 % ID/g
- Tissue uptake (% ID/g) (Liver, 5 min post-injection): 2.30 ± 1.50 % ID/g
- Tissue uptake (% ID/g) (Liver, 30 min post-injection): 2.51±0.10 % ID/g and 2.51 ± 0.20 % ID/g
- Tissue uptake (% ID/g) (Liver, 60 min post-injection): 2.32 ± 0.10 % ID/g
- Tissue uptake (% ID/g) (Liver, 120 min post-injection): 2.08 ± 0.47 % ID/g
- Tissue uptake (% ID/g) (Lung, 5 min post-injection): 1.08 ± 0.74 % ID/g
- Tissue uptake (% ID/g) (Lung, 30 min post-injection): 0.84±0.05 % ID/g and 0.84 ± 0.09 % ID/g
- Tissue uptake (% ID/g) (Lung, 60 min post-injection): 0.68 ± 0.04 % ID/g
- Tissue uptake (% ID/g) (Lung, 120 min post-injection): 0.43 ± 0.30 % ID/g
- Tissue uptake (% ID/g) (Muscle, 5 min post-injection): 0.11 ± 0.07 % ID/g
- Tissue uptake (% ID/g) (Muscle, 30 min post-injection): 0.19 ± 0.01 % ID/g
- Tissue uptake (% ID/g) (Muscle, 60 min post-injection): 0.18 ± 0.05 % ID/g
- Tissue uptake (% ID/g) (Muscle, 120 min post-injection): 0.15 ± 0.02 % ID/g
- Tissue uptake (% ID/g) (Pancreas, 5 min post-injection): 0.72 ± 0.47 % ID/g
- Tissue uptake (% ID/g) (Pancreas, 30 min post-injection): 0.66±0.04 % ID/g and 0.66 ± 0.08 % ID/g
- Tissue uptake (% ID/g) (Pancreas, 60 min post-injection): 0.52 ± 0.05 % ID/g
- Tissue uptake (% ID/g) (Pancreas, 120 min post-injection): 0.43 ± 0.06 % ID/g
- in vivo defluorination (bone uptake 5 to 120 min) (in words): no defluorination
- Tissue uptake (% ID/g) (Small intestine, 5 min post-injection): 0.75 ± 0.57 % ID/g
- Tissue uptake (% ID/g) (Small intestine, 30 min post-injection): 1.40 ± 0.36 % ID/g
- Tissue uptake (% ID/g) (Small intestine, 60 min post-injection): 1.42 ± 0.36 % ID/g
- Tissue uptake (% ID/g) (Small intestine, 120 min post-injection): 0.87 ± 0.21 % ID/g
- Tissue uptake (% ID/g) (Spleen, 5 min post-injection): 0.86 ± 0.58 % ID/g
- Tissue uptake (% ID/g) (Spleen, 30 min post-injection): 0.54±0.03 % ID/g and 0.54 ± 0.06 % ID/g
- Tissue uptake (% ID/g) (Spleen, 60 min post-injection): 0.47 ± 0.05 % ID/g
- Tissue uptake (% ID/g) (Spleen, 120 min post-injection): 0.37 ± 0.05 % ID/g
- Tissue uptake (% ID/g) (Striatum, 5 min post-injection): 0.32 ± 0.21 % ID/g
- Tissue uptake (% ID/g) (Striatum, 30 min post-injection): 0.46 ± 0.05 % ID/g
- Tissue uptake (% ID/g) (Striatum, 60 min post-injection): 0.43 ± 0.29 % ID/g
- Tissue uptake (% ID/g) (Striatum, 120 min post-injection): 0.67 ± 0.07 % ID/g
- Tissue uptake (% ID/g) (Thymus, 5 min post-injection): 0.23 ± 0.16 % ID/g
- Tissue uptake (% ID/g) (Thymus, 30 min post-injection): 0.30 ± 0.03 % ID/g
- Tissue uptake (% ID/g) (Thymus, 60 min post-injection): 0.30 ± 0.04 % ID/g
- Tissue uptake (% ID/g) (Thymus, 120 min post-injection): 0.31 ± 0.05 % ID/g
- rat brain uptake (5 min post-injection): 0.48±0.06 ID %/g
- rat brain uptake (30 min post-injection): 0.48±0.02 ID %/g
- rat brain uptake (60 min post-injection): 0.60±0.04 ID %/g
- rat brain uptake (120 min post-injection): 0.65±0.03 ID %/g
- Tissue uptake (% ID/g) (thalamus, 5 min post-injection): 0.42 ± 0.31 % ID/g
- Tissue uptake (% ID/g) (thalamus, 30 min post-injection): 0.53 ± 0.03 % ID/g
- Tissue uptake (% ID/g) (thalamus, 60 min post-injection): 0.64 ± 0.06 % ID/g
- Tissue uptake (% ID/g) (thalamus, 120 min post-injection): 0.70 ± 0.15 % ID/g
- Tissue uptake (% ID/g) (total brain, 5 min post-injection): 2.65 ± 1.63 % ID/g
- Tissue uptake (% ID/g) (total brain, 30 min post-injection): 3.41 ± 0.29 % ID/g
- Tissue uptake (% ID/g) (total brain, 60 min post-injection): 4.12 ± 0.70 % ID/g
- Tissue uptake (% ID/g) (total brain, 120 min post-injection): 4.58 ± 0.92 % ID/g
